Measured values from patent publication US20020004500A1, “Vasopeptidase Inhibitors to treat isolated systolic hypertension” (priority 2000, published 2002).

Key:
[1] = test system: subjects with isolated systolic hypertension; assay: Omapatrilat in subjects with isolated systolic hypertension: trough seated blood pressure, forced- and elective-dose titration versus placebo; format: in vivo, human; settings: for Δtrough seated diastolic blood pressure / Δtrough seated systolic blood pressure: week 9, change from baseline, trough 24±3 hours post dose; for percentage of normalized subjects (trough seated systolic blood pressure less than 140 mm Hg): week 9
Protocol: Omapatrilat was studied in subjects with isolated systolic hypertension (seated systolic blood pressure 160-199 mm Hg and diastolic blood pressure less than 90 after 4 weeks of single-blind placebo lead-in). Both a forced-dose titration (at Week 1) and an elective-dose titration (at Week 9) design were used to compare the change from baseline, relative to placebo, in trough (24±3 hours post dose) seated systolic blood pressure after 9 weeks and 13 weeks of once-daily oral administration of 3 dose regimens of omapatrilat. Treatment regimens consisted of omapatrilat 10 mg lead-in maintained at 10 mg at week 1, electively titrated to 20 mg at week 9 for subjects with a seated systolic blood pressure greater than or equal to 140 mm Hg, or omapatrilat 20 mg lead-in maintained at 20 mg at week 1, electively titrated to 40 mg at week 9 for subjects with a seated systolic blood pressure greater than or equal to 140 mm Hg, or omapatrilat 20 mg lead-in increased to 40 mg at week 1, electively titrated to 80 mg at week 9 for subjects with a seated systolic blood pressure greater than or equal to 140 mm Hg. Placebo was mock titrated at weeks 1 and week 9.
429 subjects were randomized. The mean age was 67 years, and mean baseline blood pressure was 169/82 mm Hg. The primary efficacy objective was to compare the change from baseline, relative to placebo, in trough (24±3 hours post dose) seated systolic blood pressure after 9 weeks of once-daily oral administration of 3 dose regimens of omapatrilat.

[2] = test system: neutral endopeptidase; assay: Urinary atrial natriuretic peptide excretion rate in subjects with isolated systolic hypertension; format: in vivo, human; settings: once daily 80 mg, at 24 hours after dosing
[3] = omapatrilat 10/10 mg once-daily oral
[4] = omapatrilat 20/20 mg once-daily oral
[5] = omapatrilat 20/40 mg once-daily oral

`O=C(N[C@H]1CCSC2CCC[C@@H](C(=O)O)N2C1=O)C(S)Cc1ccccc1` (relative stereo) [Omapatrilat, [4S-[4α(R*), 7α, 10aβ]]-octahydro-4-[(2-mercapto-1-oxo-3-phenylpropyl)amino]-5-oxo-7H-pyrido[2,1-b][1,3]thiazepine-7-carboxylic acid] was tested. Which “systolic and diastolic blood pressure reductions at trough versus placebo regimen” value ([1]; 10/10/20 mg, 20/20/40 mg and 20/40/80 mg once-daily for 13 weeks, predominately elderly subjects) did it give?
Its value is “greater systolic blood pressure and diastolic blood pressure reductions at trough than a regimen of placebo”.

And the “systolic blood pressure reductions versus placebo” value ([1]; Week 13, after elective titration)?
The value was “Additional small reductions in systolic blood pressure versus placebo”.

What about the “Δtrough seated diastolic blood pressure” value [1, 3] of the same compound?
The value was −1.8.

What about the “Δtrough seated systolic blood pressure” value [1, 3] of the same compound?
The value was −15.9.

What about the “percentage of normalized subjects (trough seated systolic blood pressure less than 140 mm Hg)” value (shortened to “percentage of normalized subjects”) ([1]; omapatrilat 10/10 mg) of the same compound?
The value was 28%.

And the “Δtrough seated diastolic blood pressure” value [1, 4]?
Its value is −2.6.

What about the “Δtrough seated systolic blood pressure” value [1, 4] of the same compound?
The value was −23.1.

And the “percentage of normalized subjects” value ([1]; omapatrilat 20/20 mg)?
The value was 51%.

What about the “Δtrough seated diastolic blood pressure” value [1, 5] of the same compound?
The value was −4.6.

What about the “Δtrough seated systolic blood pressure” value [1, 5] of the same compound?
Its value is −26.1.

And the “percentage of normalized subjects” value ([1]; omapatrilat 20/40 mg)?
The value was 47%.

And the “systolic and diastolic blood pressure reductions versus placebo regimen” value ([1]; week 9, all 3 omapatrilat regimens)?
The value was “greater systolic and diastolic blood pressure reductions than the placebo regimen”.

What about the “urinary atrial natriuretic peptide excretion rate” value [2] of the same compound?
The value was “persistent elevation”.
